In assay [1] the test system is mouse hippocampal neuronal cells HT22. Description: Inhibition of Erastin-induced ferroptosis, CCK8 cell viability test, HT22. Format: cell-based. As to conditions: 24 h. The procedure: (§1) Experimental method: In this example, a screening model for ferroptosis was constructed to investigate a ferroptosis inhibitor. Specifically, the screening model for ferroptosis was mainly based on the CCK8 cell viability test. Firstly, mouse hippocampal neuronal cells HT22 and human neuroblastoma SH-SY5Y cells were cultured in a dish. 80 μL of cells (5000 cells/well) in logarithmic growth phase were seeded to a 96-well plate per well, and then cultured in an incubator at 37° C., 5% CO2 to allow adhesion of cells. After 24 h, 10 μL of the compound of the present disclosure at various concentrations prepared with the specified medium and 10 μL of Erastin (ferroptosis inducer) at a final concentration of […] were added. 3 replicate wells were set for each compound to ensure the accuracy of the results. A positive control group (10 μL of a certain concentration of the compound Ferrostain-1 and 10 μL of Erastin (ferroptosis inducer) prepared with the same medium were added with reference to the above description). […] The absorbance at 450 nm was detected by a microplate reader to calculate the inhibition rate of ferroptosis by the drug. […]
(§2) The inhibition rate change curve was fitted and the IC50 was calculated by the software GraphPadPrism6.
In general terms: Formazan colour is commonly taken as a measure of viable cells.

Assay [2] relates to human neuroblastoma SH-SY5Y cells. As to the kind of experiment: Inhibition of Erastin-induced ferroptosis, CCK8 cell viability test, SH-SY5Y. The class given is cell-based. Conditions: Erastin at a final concentration of 10 M, 24 h. The protocol:
as §1, §2

The structures appear in SMILES notation.

In general, IC50 refers to the concentration that gives 50% inhibition. For `CC(c1ccc(N2CCN(C)CC2)cc1)c1ccc2c(c1)Nc1ccccc1S2` (stereo not shown), the IC50 in assay [1] (Mus musculus, HT-22, HT22, Erastin at a final concentration of 10 µM) came to 0.00287 µM; in assay [2] (Homo sapiens), 0.00141 µM.

As to `CCOC(=O)c1ccc(NC2CCCCC2)c(N)c1` [Ferrostain-1], the IC50 in assay [1] (HT22, Erastin at a final concentration of 10 µM) turned out to be 0.0962 µM; in assay [2] it was 0.0539 µM.

The values are drawn from patent US20250145605A1, “CRYSTAL FORM AND SALT OF PHENOTHIAZINE COMPOUND, PREPARATION METHOD THEREFOR AND USE THEREOF” (CHENGDU HENGHAO INNOVATIVE SCIENCE AND TECHNOLOGY CO., LTD., priority 2022, published 2025).
